In patent US7081472B2, “Substituted bis-indole derivatives useful as contrast agents, pharmaceutical compositions containing them and intermediates for producing them” (K. U. Leuven Research & Development, priority 2000, dated 2006):

Tests used:
[1] = MR angiography after intravenous injection in a rabbit; assay type: in vivo; settings: i.v. 0.1 mmole per kg
From the text: For the purpose of a comparison with a known contrast agent, MR angiographic images of a rabbit were taken (shown in FIG. 5) after intravenous injection of: • a commercial MRI contrast agent (Gd-DTPA commercially available under the tradename Magnevisto® from Schering A G, Berlin, Germany) at a concentration of 0.1 mmole per kg bodyweight (A-C), and • the complex of example 8 at a concentration of 0.05 mmole per kg bodyweight (A′-C′).

[2] = 0.25 mmolar solution, yellow-orange color; cited from earlier work
[3] = animals, 1 mmole of the gadolinium complex per kg body weight; cited from earlier work

| Molecule | contrast enhancement of abdominal aorta, first pass ([1]; immediately after injection) | contrast enhancement of abdominal aorta ([1]; one minute after contrast) | absorbance at 400 nm [2] | side effects after intravenous bolus injection [3] |
| --- | --- | --- | --- | --- |
| O=C([O-])CN(CCN(CC(=O)[O-])CC(=O)O)CCN(CC(=O)[O-])CC(=O)O.[Gd+3] [Gd-DTPA] | moderately enhanced | faintly enhanced |  |  |
| gadolinium complex of the bis-diethylenetriaminepentaacetic acid pamoic acid derivative obtained from 3-hydroxy-2-naphtalene methyl carboxylate |  |  | 0.75 | significant side effects (e.g. myocarditis) |
